A word on the inhibition: it is the change of the read-out against control, counted positive when it falls. In general, IC50 refers to the concentration that inhibits the measured activity by half.

Experimental findings from patent US12433936B2, “High-purity adrenocorticotropic hormone analogue and a large-scale preparation method thereof” (Nanjing Hanxin Pharmaceutical Technology Co., Ltd., priority 2021, dated 2025) are described below.

Series [1] is described as follows: Study of stability, packed samples stored at 2-8° C. for 6 months. The settings on record: for Conclusion: Character / Conclusion: Moisture / Conclusion: Polymer / Conclusion: Related substances (maximum single impurity) / Conclusion: The purity of chromatographic: up to 6 months. Type of series: physicochemical. The method, then: The samples prepared in example 8 were packed in double-layer medical low-density polyethylene bags and a layer of aluminum-plastic composite bags and stored at 2-8° C. for evaluation at 1, 2, 3 and 6 months respectively.
The samples prepared in example 9 were packed in double-layer medical low-density polyethylene bags and a layer of aluminum-plastic composite bags and stored at 2-8° C. for evaluation at 1, 2, 3 and 6 months respectively.

Series [2] deals with T1, melanocortin receptor 2 (MC2R) (Homo sapiens, UniProt Q01718).
T1 construct: expressed in transfected cells; host or cells: CHO-K1
Nature of the series: Activity in vitro: calcium ion signal in CHO-K1 cells expressing MC2R. Type of series: cell-based. The settings on record: for Binding ability to MC2R and biological activity (in words) / Bottom / HillSlope / Top / EC50: CHO-K1 cells expressing MC2R; for Bottom / HillSlope / Top: curve fit; for Bottom / HillSlope / Top / EC50: calcium ion signal; for EC50: read-out: EC50 (half inhibitory concentration). The method, then:
ACTH was a receptor agonist of melanocortin receptor 2 (MC2R). The combination of ACTH and MC2R could stimulate the signal pathway of the downstream and change the signal factors such as calcium ions and cAMP. The binding ability of ACTH and MC2R was determined by detecting calcium ion signals, and then the cell activity of ACTH in vitro was judged.
The samples in example 8 and example 10 were taken for activity study in vitro. CHO-K1 cells expressing MC2R were cultured in 10 cm vessels and stored at 37° C. and 5% CO2.

Series [3] deals with infantile spasticity (IS) rat model. The series is described as follows: Incubation period of spasticity in infantile spasticity (IS) rat model (betamethasone/NMDA). Type of series: in vivo, Sprague Dawley (SD) rats. The method, then: (1) Method: To investigate the effect of SEQ ID NO.4 on the incubation period of spasticity in infantile spasticity (IS) rat model.
Incubation period: Time from NMDA injection to onset of spasticity (time is measured in units of seconds).
Sham group: Sprague Dawley (SD) rats were intraperitoneally injected with saline (10 mL/kg each time) at 9:00 am and 19:00 pm respectively on the 15th day of pregnancy, and the neonatal rats (n=12) were intraperitoneally injected with saline of the same volume as the drug group on the 15th day after birth. Model group (IS group): SD rats were intraperitoneally injected with betamethasone (0.4 mg/kg each time) at 9:00 am and 19:00 pm respectively on the 15th day of pregnancy. The neonatal rats (n=12) were intraperitoneally injected with N-methyl-D-aspartic acid (NMDA, 15 mg/kg) at 15:30 pm on the 15th day after birth to establish infant spasticity (neonatal spasticity) rat model, and the incubation period from NMDA injection to spasticity was recorded. […] After the second injection of SEQ ID NO.4 for 30 minutes (i.e. 15:30 pm), NMDA (15 mg/kg) was intraperitoneally injected to establish infant spasticity rat model, and the incubation period from NMDA injection to spasticity was recorded.

The target of the next series is hERG (Homo sapiens, UniProt Q12809). Nature of the series: in vitro. Conditions: human. The source says: (§1) The cardiac […] toxicity of drugs was judged by detecting the affinity between drugs and heart receptor protein (hERG) in vitro.
Series [4] deals with heart receptor protein (hERG) (Homo sapiens, UniProt Q12809). Nature of the series: in vitro.
Source text: as §1

No end group written: not given here.

T1 sequence (Q01718 whole entry, species assumed): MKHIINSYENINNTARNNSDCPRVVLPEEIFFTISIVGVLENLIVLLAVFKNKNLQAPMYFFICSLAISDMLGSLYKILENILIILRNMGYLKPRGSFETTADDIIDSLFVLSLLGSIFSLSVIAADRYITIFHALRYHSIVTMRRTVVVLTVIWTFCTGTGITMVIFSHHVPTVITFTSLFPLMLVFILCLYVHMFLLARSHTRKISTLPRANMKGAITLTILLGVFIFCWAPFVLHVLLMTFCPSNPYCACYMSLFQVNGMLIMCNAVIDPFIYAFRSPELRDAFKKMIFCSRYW
T1 sequence (Q8TCY5 whole entry partner, species assumed): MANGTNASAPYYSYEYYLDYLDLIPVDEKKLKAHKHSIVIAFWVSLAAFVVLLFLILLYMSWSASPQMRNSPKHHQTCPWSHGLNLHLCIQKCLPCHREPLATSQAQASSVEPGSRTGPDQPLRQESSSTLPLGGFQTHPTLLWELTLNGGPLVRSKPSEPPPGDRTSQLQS
Chain of heart receptor protein (hERG) (Q12809 whole entry): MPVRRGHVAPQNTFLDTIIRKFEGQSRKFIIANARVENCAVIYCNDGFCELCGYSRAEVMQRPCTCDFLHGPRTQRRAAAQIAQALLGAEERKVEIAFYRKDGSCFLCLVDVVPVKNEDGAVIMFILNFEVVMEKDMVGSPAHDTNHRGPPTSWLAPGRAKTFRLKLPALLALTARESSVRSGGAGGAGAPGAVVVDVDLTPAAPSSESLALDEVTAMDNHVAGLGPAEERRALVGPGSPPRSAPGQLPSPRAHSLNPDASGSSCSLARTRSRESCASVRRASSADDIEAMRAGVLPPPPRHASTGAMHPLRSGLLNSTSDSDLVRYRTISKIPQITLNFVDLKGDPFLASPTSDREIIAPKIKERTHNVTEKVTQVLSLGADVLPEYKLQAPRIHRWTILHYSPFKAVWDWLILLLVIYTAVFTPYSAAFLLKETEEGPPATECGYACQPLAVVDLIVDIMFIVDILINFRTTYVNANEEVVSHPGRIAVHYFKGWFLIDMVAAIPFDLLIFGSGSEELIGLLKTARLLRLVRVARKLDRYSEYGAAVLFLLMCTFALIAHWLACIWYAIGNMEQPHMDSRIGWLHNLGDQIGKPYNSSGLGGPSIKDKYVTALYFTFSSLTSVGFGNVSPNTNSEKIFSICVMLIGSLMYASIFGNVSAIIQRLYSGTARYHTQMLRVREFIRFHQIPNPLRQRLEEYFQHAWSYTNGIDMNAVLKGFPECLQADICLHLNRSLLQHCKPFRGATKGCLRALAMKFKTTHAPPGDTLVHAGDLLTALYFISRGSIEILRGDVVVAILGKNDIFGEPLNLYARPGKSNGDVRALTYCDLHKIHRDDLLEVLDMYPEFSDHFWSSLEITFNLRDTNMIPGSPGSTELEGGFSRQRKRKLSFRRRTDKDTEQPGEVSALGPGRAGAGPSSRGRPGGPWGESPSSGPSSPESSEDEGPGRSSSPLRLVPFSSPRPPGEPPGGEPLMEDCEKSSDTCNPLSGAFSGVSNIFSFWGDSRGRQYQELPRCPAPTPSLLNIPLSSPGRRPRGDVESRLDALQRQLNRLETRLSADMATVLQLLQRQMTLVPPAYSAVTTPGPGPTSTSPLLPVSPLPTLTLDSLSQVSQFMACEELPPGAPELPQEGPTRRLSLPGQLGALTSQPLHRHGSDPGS
Chain of hERG (Q12809 whole entry): as above

“H-SYSMEHFRWGKPVGKKRRPVKVYPNGAEDESAEAFPLEF-OH [Example 8]”: in series [1] (2-8° C., 1 month), the “Character (Visual)” value is given as “White”; the “Moisture, Karl Fischer” value is 7.3%; the “Polymer (impurity with molecular weight greater than the peptide), HPLC” value (“Polymer … HPLC” for short) was found to be 0.05%; the “Related substances (maximum single impurity), HPLC” value was determined as 0.17%. In series [1] (2-8° C., 1 month), the “Related substances (total impurities), HPLC” value is recorded as 0.29% and the “The purity of chromatographic, HPLC” value is 99.71%. Besides, in series [1] (2-8° C., 2 months), the “Character (Visual)” value was “White”; the “Moisture, Karl Fischer” value was determined as 7.5%; the “Polymer … HPLC” value is 0.03%; the “Related substances (maximum single impurity), HPLC” value is listed as 0.17%. Further, in series [1] (2-8° C., 2 months), the “Related substances (total impurities), HPLC” value is given as 0.29% and the “The purity of chromatographic, HPLC” value was determined as 99.71%. Also, in series [1] (2-8° C., 3 months), the “Character (Visual)” value is “White”; the “Moisture, Karl Fischer” value is 8.4%; the “Polymer … HPLC” value turned out to be 0.06%; the “Related substances (maximum single impurity), HPLC” value worked out at 0.16%. Besides, in series [1] (2-8° C., 3 months), the “Related substances (total impurities), HPLC” value is 0.38% and the “The purity of chromatographic, HPLC” value is reported as 99.62%. In series [1] (2-8° C., 6 months), the “Character (Visual)” value is “White”; the “Moisture, Karl Fischer” value came out at 8.3%; the “Polymer … HPLC” value amounted to 0.04%; the “Related substances (maximum single impurity), HPLC” value stood at 0.11%. In series [1] (2-8° C., 6 months), the “Related substances (total impurities), HPLC” value is on record as 0.39% and the “The purity of chromatographic, HPLC” value came out at 99.61%. In series [1] (2-8° C.), the “Conclusion: Character” value is “Qualified”, the “Conclusion: Moisture” value is on record as “Qualified”, the “Conclusion: Polymer” value is reported as “Qualified” and the “Conclusion: Related substances (maximum single impurity)” value was “Qualified”. In addition, the “Conclusion: The purity of chromatographic” value in series [1] (2-8° C.) was “Qualified”. In addition, in series [1] (Start), the “Character (Visual)” value is given as “White”; the “Moisture, Karl Fischer” value was determined as 5.0%; the “Polymer … HPLC” value was found to be 0.03%; the “Related substances (maximum single impurity), HPLC” value is 0.07%. In addition, in series [1] (Start), the “Related substances (total impurities), HPLC” value is reported as 0.13% and the “The purity of chromatographic, HPLC” value is reported as 99.88%. In series [2], the “Binding ability to MC2R and biological activity (in words)” value is “had binding ability to melanocortin receptor 2 (MC2R) and showed biological activity”; the Bottom was −2.739; the HillSlope was 0.9745; the Top stood at 100.9. In addition, the “Activity of high-purity ACTH relative to low-purity ACTH” value in series [2] (ratio of EC50 values) stood at 1.6 times.

With “H-SYSMEHFRWGKPVGKKRRPVKVYPNGAEDESAEAFPLEF-OH [Example 10, reference compound]”, in series [2], the “Binding ability to MC2R and biological activity (in words)” value was “had binding ability to melanocortin receptor 2 (MC2R) and showed biological activity”; the Bottom is −1.846; the HillSlope turned out to be 1.249; the Top is listed as 94.88.

“SYSMEHFRWGKPVGKKRRPVKVYPDGAEDESAEAFPLEF (also: deamidated at N25 (given as D), Asp or isoAsp not given here) [Example 9]”: in series [1] (2-8° C., 1 month), the “Character (Visual)” value was “White”; the “Moisture, Karl Fischer” value was 7.5%; the “Polymer … HPLC” value turned out to be 0.04%; the “Related substances (maximum single impurity), HPLC” value was 0.24%. Moreover, in series [1] (2-8° C., 1 month), the “Related substances (total impurities), HPLC” value was found to be 0.42% and the “The purity of chromatographic, HPLC” value was determined as 99.58%. Further, in series [1] (2-8° C., 2 months), the “Character (Visual)” value is recorded as “White”; the “Moisture, Karl Fischer” value stood at 7.6%; the “Polymer … HPLC” value was determined as 0.05%; the “Related substances (maximum single impurity), HPLC” value was 0.17%. In series [1] (2-8° C., 2 months), the “Related substances (total impurities), HPLC” value was 0.43% and the “The purity of chromatographic, HPLC” value was found to be 99.57%. Further, in series [1] (2-8° C., 3 months), the “Character (Visual)” value is “White”; the “Moisture, Karl Fischer” value is on record as 8.5%; the “Polymer … HPLC” value is reported as 0.06%; the “Related substances (maximum single impurity), HPLC” value amounted to 0.27%. Also, in series [1] (2-8° C., 3 months), the “Related substances (total impurities), HPLC” value came out at 0.46% and the “The purity of chromatographic, HPLC” value is reported as 99.54%. Besides, in series [1] (2-8° C., 6 months), the “Character (Visual)” value is given as “White”; the “Moisture, Karl Fischer” value was found to be 8.6%; the “Polymer … HPLC” value was determined as 0.06%; the “Related substances (maximum single impurity), HPLC” value amounted to 0.10%. Also, in series [1] (2-8° C., 6 months), the “Related substances (total impurities), HPLC” value was 0.49%; the “Stability under the storage condition (in words)” value is “stable”; the “The purity of chromatographic, HPLC” value is given as 99.51%. In series [1] (2-8° C.), the “Conclusion: Character” value is reported as “Qualified”, the “Conclusion: Moisture” value is listed as “Qualified”, the “Conclusion: Polymer” value is “Qualified” and the “Conclusion: Related substances (maximum single impurity)” value is “Qualified”. Also, in series [1] (2-8° C.), the “Conclusion: The purity of chromatographic” value is “Qualified”. In series [1] (Start), the “Character (Visual)” value is given as “White”; the “Moisture, Karl Fischer” value is 5.2%; the “Polymer … HPLC” value is on record as 0.03%; the “Related substances (maximum single impurity), HPLC” value turned out to be 0.16%. Moreover, in series [1] (Start), the “Related substances (total impurities), HPLC” value came out at 0.42% and the “The purity of chromatographic, HPLC” value is reported as 99.58%. The “Incubation period of spasticity vs IS group” value in series [3] (high-dose group 0.28 U/g i.p. twice, neonatal rats day 15, P<0.0001) is recorded as “significantly prolong”. For the same substance, in series [3] (low-dose group 0.01 U/g i.p. twice, neonatal rats day 15, p<0.001), the “Incubation period of spasticity vs IS group” value is reported as “significantly prolong”.

As for “SYSMEHFRWGKPVGKKRRPVKVYPNGAEDESAEAFPLEF [Example 8]”, the “Stability under the storage condition (in words)” value in series [1] (2-8° C., 6 months) was “stable”. Moreover, the EC50 in series [2] turned out to be 180 nM. Also, on hERG, the inhibition at 10000 nM was -1.28%. In series [4], the “Cardiac metabolic toxicity (in words)” value is listed as “no cardiac metabolic toxicity” and the IC50 is > 10000 nM.

As to “SYSMEHFRWGKPVGKKRRPVKVYPNGAEDESAEAFPLEF [Example 10, reference compound]”, the EC50 in series [2] was 288 nM. The “Cardiac metabolic toxicity (in words)” value in series [4] is “no cardiac metabolic toxicity”.
